Data: patent US8846628B2, “Oral formulations of cytidine analogs and methods of use thereof” (Celgene Corporation, priority 2008, dated 2014)
“Also recorded” adds a separate entry of the source.

Experiments:
patients with MDS or AML [1] = assay: MTD study CL005: hematological response, IWG criteria; assay type: in vivo, human
From the text: Assessment of IWG criteria for certain patients in the MTD study is presented below in Table 10.

[2] = Rapid Aza Clinical Evaluation (RACE) study CL008: plasma PK; assay type: in vivo; conditions: human; for AUC(0-t) / AUC(0-inf): sc; for AUC(0-t): 75 mg/m^2, one subject (Formulation 4 cohort), SC 75 mg/m^2 (124 mg); for AUC(0-inf): SC 75 mg/m^2 (120 mg)
Description: Several oral formulations were evaluated in this study. A “3+7” cohort of patients was enrolled in the study, i.e., three patients were initially tested per formulation, and the cohorts could increase in size up to ten patients. Cohorts were enrolled in parallel.

[3] = in vivo
patients with MDS or AML [4] = conditions: in vivo
clinical = conditions: human, in vivo

Structure (SMILES): Nc1ncn([C@@H]2O[C@H](CO)[C@@H](O)[C@H]2O)c(=O)n1 [azacitidine, 4-amino-1-β-D-ribofuranosyl-1,3,5-triazin-2(1H)-one]
- IWG Assessment (patients with MDS or AML [1]; Patient 02004 (MDS), SC cycle 1, then oral 120 mg x7d Formulation #1 Cycles 2-6, 180 mg x7d Cycles 7-12): morphologic complete response (CR); also recorded: Per IWG 2006 criteria, the patient achieved complete response (CR); also recorded: achieved morphologic complete response per the IWG AML criteria; also recorded: with regard to the ANC condition for the IWG 2000 CR criteria, the patient did not meet the criteria for a complete response; also recorded: CR per IWG 2006 (Days 45-98); also recorded: Morphologic CR per the IWG AML criteria (Diagnosis is MDS)
- IWG Assessment (patients with MDS or AML [1]; Patient 02007 (CMML), Cohort 4, oral 240 mg Formulation #3 after SC cycle 1, per IWG 2000 criteria): HI-P major improvement per IWG 2000 (Days 35-202)
- platelets versus baseline (patients with MDS or AML [1]; Patient 02007, oral azacitidine starting with cycle 2 (Formulation #3, 240 mg)): increase in platelets above the baseline levels
- IWG Assessment (patients with MDS or AML [1]; Patient 02008 (MDS RAEB-1), Cohort 4, oral 240 mg Formulation #3 after SC cycle 1): HI-P major improvement per IWG 2000 (Days 34-110)
- IWG Assessment (patients with MDS or AML [1]; Patient 02009 (MDS RAEB-2), Cohort 4, oral 240 mg Formulation #3 after SC cycle 1): Marrow CR (Days 7-111+) per IWG 2006
- IWG Assessment (patients with MDS or AML [1]; Patient 02011 (MDS RAEB-1), Cohort 5, oral 300 mg Formulation #3 after SC cycle 1, per IWG 2006 criteria): Marrow CR (Days 7-177+) per IWG 2006
- IWG Assessment (patients with MDS or AML [1]; Patient 02011 (MDS RAEB-1), Cohort 5, oral 300 mg Formulation #3 after SC cycle 1, per revised IWG AML criteria): Morphologic CR per the revised IWG AML criteria on Day 21
- AUC ([2]; 75 mg/m^2, one subject (Formulation 6 cohort), following SC dosing, read-out: AUC (rounded)): ~1700 ng·h/mL
- AUC(0-t) ([2]; day 1): 2390 ng·h/mL
- AUC(0-t) ([2]; day 15): 2440 ng·h/mL
- AUC(0-inf) ([2]; 75 mg/m^2, one subject (Formulation 6 cohort), day 1): 1720 ng·h/mL
- AUC(0-inf) ([2]; 75 mg/m^2, one subject (Formulation 6 cohort), day 15): 1640 ng·h/mL
- dose proportionality of exposure [3]: did not result in dose-proportional increase in exposure
- dose limited toxicity (DLT) (patients with MDS or AML [4]): none of the patients have shown dose limited toxicity (DLT)
- AUC (clinical; po, 180 mg): 330 ng·h/mL
- bioavailability (clinical; po, 180 mg): 30%
- AUC (clinical; sc, 75 mg/m2): 1000 ng·h/mL
- AUC(0-inf) (clinical; sc, 75 mg/m2, AUC(0-inf)): 1210 ng·h/mL
- AUC(0-t) (clinical; sc, 75 mg/m2, AUC(0-t)): 1140 ng·h/mL
- Cmax (clinical; sc, 75 mg/m2, Cmax): 697 ng/mL
- Tmax (clinical; sc, 75 mg/m2, Tmax): 0.51 h
- half-life (clinical; sc, 75 mg/m2, t½): 1.73 h
